Literature values in patent publication US20160303051A1, “Burst Drug Release Compositions” (Wyeth LLC, priority 2009, published 2016).

CC(C)Cc1ccc(C(C)C(=O)O)cc1 (stereo not shown) [Ibuprofen, ibuprofen]
solubility (BCS): low solubility
